Measurements as given in patent US20120165339A1, “CYCLOPROPANE DERIVATIVES” (EISAI R&D MANAGEMENT CO., LTD., priority 2010, published 2012).
Where two headings read alike, the source gives them in different places.

Legend:
mice (C57BL/6NCrlCrLj) = assay: Sleep experiment (EEG/EMG) in mice; format: in vivo; details: oral administration, accumulated sleep over 3 hours, difference to vehicle-administration day
Protocol: As a method for measuring the influence of the present compound on sleep time, electroencephalogram (EEG) and electromyogram (EMG) measurements were carried out in mice (C57BL/6NCrlCrLj).
In order to measure brain waves and muscle signals, EEG and EMG electrode implantation was performed on individual mice, and the mice were then housed in a state in which they could freely move and habituate in individual recording cages for 1 week or longer. Thereafter, amplified EEG and EMG signals were digitally recorded.
Mice received either oral administration of vehicle or test compound in vehicle, after which sleep/wake behavior of mice was recorded for 3 hours.
For sleep analysis, automatic analysis software from Kissei Comtec Co., Ltd. was used to analyze EEG frequency and EMG activity signals in detail and to determine sleep and wake states. Thereafter, accumulated sleeping time over 3 hours was calculated.
The effect of the compound to increase sleep time was evaluated as the difference between sleeping time on the vehicle-administration day and the sleep time on the subsequent drug-administration day.

OX2 [1] = target: T1, OX2 (Homo sapiens, UniProt O43614); assay: Orexin-receptor binding ability, [125I]-OX-A, CHO cell membranes expressing OX2; design: expressed in transfected cells; host or cells: CHO cells (membrane preparation)
T1 sequence (O43614 1-444): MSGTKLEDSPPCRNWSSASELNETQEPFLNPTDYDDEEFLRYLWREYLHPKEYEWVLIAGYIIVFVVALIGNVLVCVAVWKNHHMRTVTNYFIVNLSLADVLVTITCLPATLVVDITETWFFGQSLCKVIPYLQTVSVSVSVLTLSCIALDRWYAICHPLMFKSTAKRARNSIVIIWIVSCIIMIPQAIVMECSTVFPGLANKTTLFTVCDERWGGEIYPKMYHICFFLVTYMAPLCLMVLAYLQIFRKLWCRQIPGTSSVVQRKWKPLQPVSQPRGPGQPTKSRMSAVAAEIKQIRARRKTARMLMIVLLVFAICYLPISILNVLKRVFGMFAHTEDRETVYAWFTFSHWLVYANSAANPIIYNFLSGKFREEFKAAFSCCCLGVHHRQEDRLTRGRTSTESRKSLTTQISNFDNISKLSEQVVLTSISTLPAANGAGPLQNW
Method in brief: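 Competition binding used membranes from recombinant CHO cells (5 μg protein/assay) with 0.2 nM [125I]-OX-A tracer and varied compound concentrations. Incubation was 30 min at room temperature in 25 mM HEPES pH 7.5 with CaCl2, MgCl2, 0.5% BSA, 0.05% Tween-20 and 0.2% DMSO. Bound radioactivity was counted by scintillation after one wash, giving IC50 (nM).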

OX1 [2] = target: T2, OX1 (Homo sapiens, UniProt O43613); assay: Antagonism PLAP reporter assay, HEK-293 cells expressing human OX1; format: cell-based; design: expressed in transfected cells; host or cells: HEK-293 cell line, expression vector pBabeCLIH; details: HEK-293, 1 nM human OX-A; IC50 converted to Ki by Cheng-Prusoff equation
T2 sequence (O43613 1-425): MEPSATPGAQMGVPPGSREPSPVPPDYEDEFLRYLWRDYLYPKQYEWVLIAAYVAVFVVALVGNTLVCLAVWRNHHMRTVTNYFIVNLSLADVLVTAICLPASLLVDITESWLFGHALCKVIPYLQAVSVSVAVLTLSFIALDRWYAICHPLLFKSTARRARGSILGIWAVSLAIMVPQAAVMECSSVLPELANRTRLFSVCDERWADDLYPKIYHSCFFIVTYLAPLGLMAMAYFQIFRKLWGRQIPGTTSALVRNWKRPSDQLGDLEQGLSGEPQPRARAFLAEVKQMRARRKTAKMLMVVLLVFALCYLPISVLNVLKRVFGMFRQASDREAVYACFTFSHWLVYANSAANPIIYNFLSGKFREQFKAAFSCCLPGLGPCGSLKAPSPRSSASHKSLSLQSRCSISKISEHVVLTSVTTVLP
Method in brief: (§1)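 HEK-293 cells expressing human OX1 or OX2 preincubated 1 h at room temperature with compound, then stimulated with 1 nM orexin-A plus 300 nM forskolin for about 18-24 h at 37 °C. Secreted PLAP read by luminescence; IC50 converted to Ki via Cheng-Prusoff using measured OX-A Kd.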

OX2 [3] = target: T1, OX2; assay: Antagonism PLAP reporter assay, HEK-293 cells expressing human OX2; format: cell-based; design: expressed in transfected cells; host or cells: HEK-293 cell line, expression vector pBabeCLIH; details: HEK-293, 1 nM human OX-A; IC50 converted to Ki by Cheng-Prusoff equation
Method in brief: as §1

OX1 [4] = target: T2, OX1; assay: Orexin-receptor binding ability, [125I]-OX-A, CHO cell membranes expressing OX1; design: expressed in transfected cells; host or cells: CHO cells (membrane preparation); details: membranes of recombinant CHO cells, 0.2 nM [125I]-OX-A tracer; read-out: OX1 (IC50)
Method in brief: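 Buffer was 25 mM HEPES pH 7.5, 1 mM CaCl2, 4.5 mM MgCl2, 0.5% BSA, 0.1% sodium azide, 0.05% Tween-20 and 0.2% DMSO. Bound radioactivity was counted by scintillation, and IC50 values were reported.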

[5] = membranes of recombinant CHO cells, 0.2 nM [125I]-OX-A tracer, read-out: OX2 (IC50)

| IC50 (OX2 [1]; [5]) [nM] | Ki (OX1 [2]) [nM] | Ki (OX2 [3]) [nM] | IC50 (OX1 [4]) [nM] | SMILES | Sleep extended time (min/3 hrs) (mice (C57BL/6NCrlCrLj)) | IC50 (OX2 [1]) [nM] |
| --- | --- | --- | --- | --- | --- | --- |
| 13 | 65.2 | 5.1 | 129 | COc1ccc(OC[C@@]2(c3ccccc3)C[C@H]2C(=O)Nc2ccc(C#N)cn2)cc1OC [Example 4, (1R,2S)—N-(5-cyanopyridin-2-yl)-2-[(3,4-dimethoxyphenyl)oxymethyl]-2-phenylcyclopropanecarboxamide] | 57 |  |
| 19 | 406 | 31.4 | 166 | Cc1nc(C(F)(F)F)nn1CC[C@@]1(c2ccccc2)C[C@H]1C(=O)Nc1ccc(F)cn1 [Example 121] | 21.3 |  |
| 3 | 140 | 10 | 98 | Cc1nc(C(F)(F)F)nn1CC[C@@]1(c2ccccc2)C[C@H]1C(=O)Nc1ccc(Cl)cn1 [Example 122] | 21.8 |  |

| SMILES | IC50 (OX2 [1]; [5]) [nM] | Ki (OX1 [2]) [nM] | Ki (OX2 [3]) [nM] | IC50 (OX1 [4]) [nM] | Sleep extended time (min/3 hrs) (mice (C57BL/6NCrlCrLj)) | IC50 (OX2 [1]) [nM] |
| --- | --- | --- | --- | --- | --- | --- |
| COc1ccc(S(=O)(=O)CC2(c3ccccc3)CC2C(=O)Nc2ccc(Cl)cn2)cc1OC (stereo not shown) [Example 134, N-(5-chloropyridin-2-yl)-2-[(3,4-dimethoxyphenyl)sulfonylmethyl]-2-phenylcyclopropanecarboxamide] |  | > 467 | 268 | 261 |  | 79 |
